# According to patent publication US9980943B2, “Methods of treating muscular dystrophy” (BOARD OF REGENTS OF THE NEVADA SYSTEM OF HIGHER EDUCATION, …, priority 2013, dated 2018):
# Columns and labels:
# Assay type in all cases: cell-based, mouse
# [1] = tested on: α7 integrin (LacZ reporter in α7βgal+/− myoblasts); test: Myoblast α7+/LacZ integrin FDG assay (Burkin assay in myoblasts, 96-well); conditions: α7+/LacZ myoblasts, 96-well
# [2] = tested on: α7 integrin (LacZ reporter in α7+/LacZ myotubes); test: Myotube α7 integrin FDG assay (Burkin assay in myotubes, 96-well); conditions: myotubes
# [3] = tested on: β-galactosidase in CMV-LacZ C2C12 myoblasts; test: CMV-LacZ secondary screen in C2C12 myoblasts (β-Gal stabilizing assay); conditions: CMV-LacZ C2C12 myoblasts
# Outline: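 A secondary screen identifies compounds that stabilize β-gal independently of the native promoter, using CMV-LacZ C2C12 cells. Curves span 0.5–40 μM at six levels, in duplicate.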
# [4] = tested on: β-galactosidase in CMV-LacZ C2C12 myotubes; test: CMV-LacZ secondary screen in C2C12 myotubes (β-Gal stabilizing assay); conditions: C2C12 CMV-LacZ myotubes, fold relative to DMSO
# Outline: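 β-gal stabilization was measured in C2C12 myoblasts or myotubes stably transfected with a CMV-driven LacZ construct, using the FDG β-gal assay. Compounds were tested in dose-response at 0.5, 1, 5, 10, 20 and 40 μM, with two replicates per point.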
smiles,measurement,setting,value
CCCn1c(-c2cc(OC)c(OC)c(OC)c2)nc2c1c(=O)[nH]c(=O)n2Cc1ccccc1 [MLS001174740-01],"Burkin Assay in Myoblasts, signal relative to DMSO",[1]; 0.5 uM,1.221
same,"Burkin Assay in Myoblasts, signal relative to DMSO",[1]; 1 uM,1.193
same,"Burkin Assay in Myoblasts, signal relative to DMSO",[1]; 5 uM,0.8512
same,"Burkin Assay in Myoblasts, signal relative to DMSO",[1]; 10 uM,1.181
same,"Burkin Assay in Myoblasts, signal relative to DMSO",[1]; 20 uM,0.9658
same,"Burkin Assay in Myoblasts, signal relative to DMSO",[1]; 40 uM,0.5414
same,"Burkin Assay in Myotubes, α7 integrin LacZ reporter signal relative to DMSO",[2]; 0.5 uM,0.9078
same,"Burkin Assay in Myotubes, α7 integrin LacZ reporter signal relative to DMSO",[2]; 1 uM,0.8687
same,"Burkin Assay in Myotubes, α7 integrin LacZ reporter signal relative to DMSO",[2]; 5 uM,0.8574
same,"Burkin Assay in Myotubes, α7 integrin LacZ reporter signal relative to DMSO",[2]; 10 uM,0.9017
same,"Burkin Assay in Myotubes, α7 integrin LacZ reporter signal relative to DMSO",[2]; 20 uM,0.7823
same,"Burkin Assay in Myotubes, α7 integrin LacZ reporter signal relative to DMSO",[2]; 40 uM,0.7064
same,CMV-LACZ in Myoblasts (β-galactosidase activity relative to DMSO),[3]; 0.5 uM,1.2750
same,CMV-LACZ in Myoblasts (β-galactosidase activity relative to DMSO),[3]; 1 uM,0.9721
same,CMV-LACZ in Myoblasts (β-galactosidase activity relative to DMSO),[3]; 5 uM,1.0046
same,CMV-LACZ in Myoblasts (β-galactosidase activity relative to DMSO),[3]; 10 uM,0.9490
same,CMV-LACZ in Myoblasts (β-galactosidase activity relative to DMSO),[3]; 20 uM,0.4293
same,CMV-LACZ in Myoblasts (β-galactosidase activity relative to DMSO),[3]; 40 uM,0.4578
same,"CMV-LACZ in Myotubes, signal relative to DMSO",[4]; 0.5 uM,0.8533
same,"CMV-LACZ in Myotubes, signal relative to DMSO",[4]; 1 uM,0.9267
same,"CMV-LACZ in Myotubes, signal relative to DMSO",[4]; 5 uM,0.9101
same,"CMV-LACZ in Myotubes, signal relative to DMSO",[4]; 10 uM,1.0520
same,"CMV-LACZ in Myotubes, signal relative to DMSO",[4]; 20 uM,1.0568
same,"CMV-LACZ in Myotubes, signal relative to DMSO",[4]; 40 uM,0.8863
O=C(N[C@@H](Cc1c[nH]c2ccccc12)C(=O)O)C1CCN(S(=O)(=O)c2cccs2)CC1 [MLS001175021-01],"Burkin Assay in Myoblasts, signal relative to DMSO",[1]; 0.5 uM,0.92
same,"Burkin Assay in Myoblasts, signal relative to DMSO",[1]; 1 uM,0.9803
same,"Burkin Assay in Myoblasts, signal relative to DMSO",[1]; 5 uM,0.8806
same,"Burkin Assay in Myoblasts, signal relative to DMSO",[1]; 10 uM,0.906
same,"Burkin Assay in Myoblasts, signal relative to DMSO",[1]; 20 uM,0.9747
same,"Burkin Assay in Myoblasts, signal relative to DMSO",[1]; 40 uM,0.9575
same,"Burkin Assay in Myotubes, α7 integrin LacZ reporter signal relative to DMSO",[2]; 0.5 uM,1.061
same,"Burkin Assay in Myotubes, α7 integrin LacZ reporter signal relative to DMSO",[2]; 1 uM,1.0167
same,"Burkin Assay in Myotubes, α7 integrin LacZ reporter signal relative to DMSO",[2]; 5 uM,1.051
same,"Burkin Assay in Myotubes, α7 integrin LacZ reporter signal relative to DMSO",[2]; 10 uM,0.9913
same,"Burkin Assay in Myotubes, α7 integrin LacZ reporter signal relative to DMSO",[2]; 20 uM,0.9799
same,"Burkin Assay in Myotubes, α7 integrin LacZ reporter signal relative to DMSO",[2]; 40 uM,0.8788
same,CMV-LACZ in Myoblasts (β-galactosidase activity relative to DMSO),[3]; 0.5 uM,1.1772
same,CMV-LACZ in Myoblasts (β-galactosidase activity relative to DMSO),[3]; 1 uM,1.0729
same,CMV-LACZ in Myoblasts (β-galactosidase activity relative to DMSO),[3]; 5 uM,0.9282
same,CMV-LACZ in Myoblasts (β-galactosidase activity relative to DMSO),[3]; 10 uM,0.9395
same,CMV-LACZ in Myoblasts (β-galactosidase activity relative to DMSO),[3]; 20 uM,1.1070
same,CMV-LACZ in Myoblasts (β-galactosidase activity relative to DMSO),[3]; 40 uM,1.0907
same,"CMV-LACZ in Myotubes, signal relative to DMSO",[4]; 0.5 uM,1.0611
same,"CMV-LACZ in Myotubes, signal relative to DMSO",[4]; 1 uM,0.9621
same,"CMV-LACZ in Myotubes, signal relative to DMSO",[4]; 5 uM,0.9049
same,"CMV-LACZ in Myotubes, signal relative to DMSO",[4]; 10 uM,0.7979
same,"CMV-LACZ in Myotubes, signal relative to DMSO",[4]; 20 uM,1.1378
same,"CMV-LACZ in Myotubes, signal relative to DMSO",[4]; 40 uM,0.9733
Cc1cccc(C)c1NCC(=O)N1CCN(Cc2ccccc2)CC1.Cl [MLS001176153-01],"Burkin Assay in Myoblasts, signal relative to DMSO",[1]; 0.5 uM,1.06
same,"Burkin Assay in Myoblasts, signal relative to DMSO",[1]; 1 uM,1.045
same,"Burkin Assay in Myoblasts, signal relative to DMSO",[1]; 5 uM,0.9185
same,"Burkin Assay in Myoblasts, signal relative to DMSO",[1]; 10 uM,0.8767
same,"Burkin Assay in Myoblasts, signal relative to DMSO",[1]; 20 uM,1.145
same,"Burkin Assay in Myoblasts, signal relative to DMSO",[1]; 40 uM,1.12
same,"Burkin Assay in Myotubes, α7 integrin LacZ reporter signal relative to DMSO",[2]; 0.5 uM,1.007
same,"Burkin Assay in Myotubes, α7 integrin LacZ reporter signal relative to DMSO",[2]; 1 uM,1.027
same,"Burkin Assay in Myotubes, α7 integrin LacZ reporter signal relative to DMSO",[2]; 5 uM,0.9538
same,"Burkin Assay in Myotubes, α7 integrin LacZ reporter signal relative to DMSO",[2]; 10 uM,1.106
same,"Burkin Assay in Myotubes, α7 integrin LacZ reporter signal relative to DMSO",[2]; 20 uM,0.9238
same,"Burkin Assay in Myotubes, α7 integrin LacZ reporter signal relative to DMSO",[2]; 40 uM,0.9818
same,CMV-LACZ in Myoblasts (β-galactosidase activity relative to DMSO),[3]; 0.5 uM,1.2729
same,CMV-LACZ in Myoblasts (β-galactosidase activity relative to DMSO),[3]; 1 uM,1.4588
same,CMV-LACZ in Myoblasts (β-galactosidase activity relative to DMSO),[3]; 5 uM,0.8976
same,CMV-LACZ in Myoblasts (β-galactosidase activity relative to DMSO),[3]; 10 uM,0.9140
same,CMV-LACZ in Myoblasts (β-galactosidase activity relative to DMSO),[3]; 20 uM,0.9322
same,CMV-LACZ in Myoblasts (β-galactosidase activity relative to DMSO),[3]; 40 uM,1.0763
same,"CMV-LACZ in Myotubes, signal relative to DMSO",[4]; 0.5 uM,0.8316
same,"CMV-LACZ in Myotubes, signal relative to DMSO",[4]; 1 uM,0.9832
same,"CMV-LACZ in Myotubes, signal relative to DMSO",[4]; 5 uM,0.7944
same,"CMV-LACZ in Myotubes, signal relative to DMSO",[4]; 10 uM,0.9388
same,"CMV-LACZ in Myotubes, signal relative to DMSO",[4]; 20 uM,1.0256
same,"CMV-LACZ in Myotubes, signal relative to DMSO",[4]; 40 uM,1.0878
